Source: US11452718B2 (AVALYN PHARMA INC., priority 2012, dated 2022)
Read-outs that look alike come from different tables or passages of the source. Marks after values point to notes of the source that are not given here.

Assays:
[1] = Stability assessment of pirfenidone formulations at 25° C./60RH and 40° C./75RH; assay type: physicochemical; conditions: time zero
Protocol: The sample was agitated until completely dissolved. Once dissolved, samples were filtered via syringe through a 0.22 μm PVDF filter.
Samples were refrigerated to reduce evaporative loss of volatile co-solvents (ethanol) during filtration and dispensing. An approximate 5.0-mL aliquot of each formulation was transferred to class A glass 6 ml containers with suitable closures (20 mm stopper). At least 8 containers are being maintained in the upright orientation at 25° C./60RH, and another 8 containers maintained at 40° C./75RH.

[2] = 85% saturation pirfenidone formulations exposed to several temperatures (re-crystallization); assay type: physicochemical; conditions: overnight
Description: However, in all cases pirfenidone eventually re-crystallized. This re-crystallization was not inhibited by pre-filtration of the sample.

[3] = Rubino et al., cited from earlier work
[4] = Buffer and pH effects: pirfenidone solubility in citrate and phosphate buffers; assay type: physicochemical; conditions: Citrate buffer 5 mM, pH 6; ambient temperature overnight
Protocol: The sample was agitated at ambient temperature overnight. The sample was visually inspected, appearance recorded, centrifuged to sediment any un-dissolved material, and the supernatant withdrawn via syringe through a 0.22 μm PVDF filter. […] The remaining filtered sample was split into three equal volumes in glass vials and placed at 25° C./60RH, 40° C./75RH and refrigeration. Samples were wrapped in aluminum foil to reduce light exposure. After the first night of incubation, samples were briefly visually inspected for any signs of discoloration or precipitate formation.

[5] = Osmolality determination and nebulization for taste testing, throat irritation and cough response of selected formulations; conditions: for Cough Response? / Throat Irritation?: nebulized
Description: Selected formulations were subjected to osmolality determination and nebulization for taste testing and throat irritation and or cough response.

[6] = Modeled human inhaled aerosol pirfenidone pharmacokinetics (FIG. 2, FIG. 5, Table 28)
Protocol: Aerosol deliver parameters for the FIGS. 2 and 5 models were based on high-efficiency, mesh-based nebulizer characterization (Table 12). […] Respirable delivered dose (RDD) calculated by the product of fine particle fraction (FPF, %<5 microns) and inhaled mass. […] This later dose was modeled to be delivered in 1 minute.

[7] = 5 mM phosphate buffer pH 6.5 plus 1% (v/v) EtOH, 2% (v/v) PG, target pirfenidone 1 mg/mL
[8] = 5 mM phosphate buffer pH 6.5 plus 1% (v/v) EtOH, 2% (v/v) PG, target pirfenidone 15 mg/mL
[9] = 5 mM phosphate buffer pH 6.5 plus 4% (v/v) EtOH, 8% (v/v) PG, target pirfenidone 23 mg/mL
[10] = 5 mM phosphate buffer pH 6.5 plus 6% (v/v) EtOH, 12% (v/v) PG, target pirfenidone 30 mg/mL
[11] = 5 mM phosphate buffer pH 6.5 plus 8% (v/v) EtOH, 16% (v/v) PG, target pirfenidone 1 mg/mL
[12] = 5 mM phosphate buffer pH 6.5 plus 8% (v/v) EtOH, 16% (v/v) PG, target pirfenidone 38 mg/mL
[13] = pirfenidone 27.2 mg/mL, 4% EtOH, 8% PG, 88% phosphate buffer (5 mM), pH 6.6
[14] = pirfenidone 34.7 mg/mL, 6% EtOH, 12% PG, 82% phosphate buffer (5 mM), pH 7.0
[15] = pirfenidone 43.7 mg/mL, 8% EtOH, 16% PG, 0 mM sodium saccharin, 76% phosphate buffer (5 mM), pH 7.0
[16] = pirfenidone 43.7 mg/mL, 8% EtOH, 16% PG, 0.3 mM sodium saccharin, 76% phosphate buffer (5 mM), pH 7.0

Q: Which “Measured Pirfenidone” value [1, 7] does the source give for `Cc1ccc(=O)n(-c2ccccc2)c1` [pirfenidone, 5-methyl-1-phenyl-2-(1H)-pyridone] here?
A: 1.0 mg/mL

Q: And the mOsmol/kg [1, 7]?
A: 452 mOsmol/kg

Q: What about the pH [1, 7] of the same compound?
A: 6.69

Q: And the “Measured Pirfenidone” value [1, 8]?
A: 16.1 mg/mL

Q: And the mOsmol/kg [1, 8]?
A: 512 mOsmol/kg

Q: What about the pH [1, 8] of the same compound?
A: 6.65

Q: And the “Measured Pirfenidone” value [1, 9]?
A: 24.1 mg/mL

Q: And the pH [1, 9]?
A: 6.78

Q: And the “Measured Pirfenidone” value [1, 10]?
A: 30.3 mg/mL

Q: What about the mOsmol/kg [1, 10] of the same compound?
A: 2863 mOsmol/kg

Q: What about the pH [1, 10] of the same compound?
A: 6.90

Q: And the “Measured Pirfenidone” value [1, 11]?
A: 1.0 mg/mL

Q: And the mOsmol/kg [1, 11]?
A: 3590 mOsmol/kg

Q: And the pH [1, 11]?
A: 6.98

Q: And the “Measured Pirfenidone” value [1, 12]?
A: 38.9 mg/mL

Q: And the mOsmol/kg [1, 12]?
A: 3750 mOsmol/kg

Q: And the pH [1, 12]?
A: 7.04

Q: And the Recrystallization upon storage ([2]; 4° C., pirfenidone 23.0 mg/mL (85% saturation), 4% EtOH, 8% PG, 88% phosphate buffer (5 mM), pH 6.6)?
A: No

Q: What about the Recrystallization upon storage ([2]; 4° C., pirfenidone 29.5 mg/mL, 6% EtOH, 12% PG, 82% phosphate buffer (5 mM), pH 7.0) of the same compound?
A: No

Q: What about the Recrystallization upon storage ([2]; 4° C., pirfenidone […], 8% EtOH, 16% PG, 76% phosphate buffer (5 mM), pH 7.0) of the same compound?
A: No

Q: What about the Recrystallization upon storage ([2]; 15° C., pirfenidone 23.0 mg/mL (85% saturation), 4% EtOH, 8% PG, 88% phosphate buffer (5 mM), pH 6.6) of the same compound?
A: No

Q: What about the Recrystallization upon storage ([2]; 15° C., pirfenidone 29.5 mg/mL, 6% EtOH, 12% PG, 82% phosphate buffer (5 mM), pH 7.0) of the same compound?
A: No

Q: What about the Recrystallization upon storage ([2]; 15° C., pirfenidone […], 8% EtOH, 16% PG, 76% phosphate buffer (5 mM), pH 7.0) of the same compound?
A: No

Q: And the Recrystallization upon storage ([2]; 25° C., pirfenidone 23.0 mg/mL (85% saturation), 4% EtOH, 8% PG, 88% phosphate buffer (5 mM), pH 6.6)?
A: No

Q: What about the Recrystallization upon storage ([2]; 25° C., pirfenidone 27.2 mg/mL (saturation solubility), 4% EtOH, 8% PG, 88% phosphate buffer (5 mM), pH 6.6) of the same compound?
A: Yes

Q: And the Recrystallization upon storage ([2]; 25° C., pirfenidone 29.5 mg/mL, 6% EtOH, 12% PG, 82% phosphate buffer (5 mM), pH 7.0)?
A: No

Q: And the Recrystallization upon storage ([2]; 25° C., pirfenidone 34.7 mg/mL, 6% EtOH, 12% PG, 82% phosphate buffer (5 mM), pH 7.0)?
A: Yes

Q: And the Recrystallization upon storage ([2]; 25° C., pirfenidone 43.7 mg/mL, 8% EtOH, 16% PG, 76% phosphate buffer (5 mM), pH 7.0)?
A: Yes

Q: And the Recrystallization upon storage ([2]; 25° C., pirfenidone […], 8% EtOH, 16% PG, 76% phosphate buffer (5 mM), pH 7.0)?
A: No

Q: And the Recrystallization upon storage ([2]; −20° C., pirfenidone 23.0 mg/mL (85% saturation), 4% EtOH, 8% PG, 88% phosphate buffer (5 mM), pH 6.6, crystals re-dissolved at 25° C. without agitation)?
A: Yes^f

Q: What about the Recrystallization upon storage ([2]; −20° C., pirfenidone 29.5 mg/mL, 6% EtOH, 12% PG, 82% phosphate buffer (5 mM), pH 7.0, crystals re-dissolved at 25° C. without agitation) of the same compound?
A: Yes^f

Q: And the Recrystallization upon storage ([2]; −20° C., pirfenidone […], 8% EtOH, 16% PG, 76% phosphate buffer (5 mM), pH 7.0, crystals re-dissolved at 25° C. without agitation)?
A: Yes^f

Q: What about the T1/2 beta ([3]; lung tissue (derived solely from plasma T1/2), aerosol 47 mg RDD, 2009 fasted-state) of the same compound?
A: 2.5 h

Q: And the T1/2 beta ([3]; lung tissue (derived solely from plasma T1/2), oral 801 mg, fasted-state, 2009)?
A: 2.5 h

Q: What about the T1/2 beta ([3]; lung tissue (derived solely from plasma T1/2), oral 801 mg, fed-state, 2009) of the same compound?
A: 2.4 h

Q: And the T1/2 beta ([3]; plasma, aerosol 47 mg RDD, 2009 fasted-state)?
A: 2.5 h

Q: And the T1/2 beta ([3]; plasma, oral 801 mg, fasted-state, 2009)?
A: 2.5 h

Q: And the T1/2 beta ([3]; plasma, oral 801 mg, fed-state, 2009)?
A: 2.4 h

Q: And the “Pirfenidone Saturation Solubility” value [4]?
A: 18.4 mg/mL

Q: And the “Cough Response?” value [5, 13]?
A: No

Q: And the “Throat Irritation?” value [5, 13]?
A: No

Q: And the “Cough Response?” value [5, 14]?
A: No

Q: What about the “Throat Irritation?” value [5, 14] of the same compound?
A: No

Q: And the “Cough Response?” value [5, 15]?
A: No

Q: What about the “Throat Irritation?” value [5, 15] of the same compound?
A: No

Q: What about the “Cough Response?” value [5, 16] of the same compound?
A: No

Q: And the “Throat Irritation?” value [5, 16]?
A: No

Q: And the Osmolality ([5]; pirfenidone 27.2 mg/mL, 4% EtOH, 8% PG, 88% phosphate buffer (5 mM), pH 6.6, calculated)?
A: ~1830* mOsmo/Kg

Q: And the Osmolality ([5]; pirfenidone 34.7 mg/mL, 6% EtOH, 12% PG, 82% phosphate buffer (5 mM), pH 7.0, calculated)?
A: ~2750* mOsmo/Kg

Q: What about the Osmolality [5, 15] of the same compound?
A: 3672 mOsmo/Kg

Q: What about the Osmolality [5, 16] of the same compound?
A: 3672 mOsmo/Kg

Q: What about the “lung tissue Cmax compared to the 801 mg oral pirfenidone dose” value ([6]; 2.5 mg RDD inhaled over 1 minute, human model) of the same compound?
A: equivalent

Q: And the “possible achieved human lung tissue Cmax” value ([6]; 29 mg RDD, 3 minute tidal-inhaled nebulized dose)?
A: 43.2 mcg/gram lung tissue

Q: What about the “plasma AUC compared to the 801 mg oral pirfenidone dose” value ([6]; 120 mg RDD inhaled over 5 minutes, human model) of the same compound?
A: equivalent
